Laboratory results as given in article PMC2116235 (The Journal of Cell Biology, 1990).

Tests used:
[1] = test system: bovine aortic endothelial cells; assay: Cell spreading assay; assay type: cell-based; conditions: 37C
type IV collagen [2] = target: T1, type IV collagen (Mus musculus, UniProt P02463+P08122); assay: Solid phase binding of 125I-peptides to type IV collagen; design: species or system murine (EHS tumor); conditions: 37C, 2 h; for Competition of bound 125I-peptide by unlabeled corresponding peptide: 5 µg 125I-peptide, unlabeled peptide up to 400-fold excess (2 mg/ml)
type IV collagen [3] = target: T1, type IV collagen; assay: Turbidity of type IV collagen assembly; assay type: biochemical, murine (EHS tumor); conditions: peptide 100 µg/ml with type IV collagen-NC1 domain mixtures, 37C, 360 nm
[4] = test system: bovine aortic endothelial cells; assay: Binding of 125I-Hep-I to endothelial cells in solution, direct and competition; conditions: 5 µg 125I-Hep-I; unlabeled peptide up to 400-fold excess, 4C, 20 min
[5] = test system: adhesion of bovine aortic endothelial cells to NC1 domain; assay: Competition of endothelial cell binding to NC1 domain by peptides; assay type: cell-based
[6] = test system: adhesion of bovine aortic endothelial cells to type IV collagen; assay: Competition of endothelial cell binding to type IV collagen by peptides; assay type: cell-based; conditions: ~5 µg (100 µg/ml) peptide; type IV collagen coated at 10 µg/ml; 60 min at 37C
[7] = test system: microvascular endothelial cells; assay: Adhesion of microvascular endothelial cells; assay type: cell-based; conditions: preliminary observations
type IV collagen [8] = conditions: cited from earlier work
BSA = assay: Nonspecific binding of peptide to BSA-coated plastic; conditions: BSA coated onto plastic; all concentrations used; data not shown
murine melanoma cells = assay: Adhesion of murine melanoma cells; assay type: cell-based; conditions: preliminary observations
[9] = cited from earlier work
[10] = test system: adhesion of bovine aortic endothelial cells to type IV collagen; assay type: cell-based; conditions: type IV collagen 1-60 µg/ml; glycosaminoglycan up to 10 mg/ml; 60 min at 37C
[11] = target: intact type IV collagen (EHS tumor) (mouse (endogenous in the EHS tumor)); assay: rotary shadowing electron microscopy
[12] = test system: bovine aortic endothelial cells; assay: Direct solid phase cell-binding; assay type: cell-based; conditions: 35S-labeled cells, 37C, 30-60 min
[13] = test system: bovine aortic endothelial cells; conditions: as compared to fibronectin or laminin; cited from earlier work
[14] = 30 min, substrate type IV collagen 10 µg/ml or peptide Hep-I 20 µg/ml

T1 sequence (P02463 173-1669): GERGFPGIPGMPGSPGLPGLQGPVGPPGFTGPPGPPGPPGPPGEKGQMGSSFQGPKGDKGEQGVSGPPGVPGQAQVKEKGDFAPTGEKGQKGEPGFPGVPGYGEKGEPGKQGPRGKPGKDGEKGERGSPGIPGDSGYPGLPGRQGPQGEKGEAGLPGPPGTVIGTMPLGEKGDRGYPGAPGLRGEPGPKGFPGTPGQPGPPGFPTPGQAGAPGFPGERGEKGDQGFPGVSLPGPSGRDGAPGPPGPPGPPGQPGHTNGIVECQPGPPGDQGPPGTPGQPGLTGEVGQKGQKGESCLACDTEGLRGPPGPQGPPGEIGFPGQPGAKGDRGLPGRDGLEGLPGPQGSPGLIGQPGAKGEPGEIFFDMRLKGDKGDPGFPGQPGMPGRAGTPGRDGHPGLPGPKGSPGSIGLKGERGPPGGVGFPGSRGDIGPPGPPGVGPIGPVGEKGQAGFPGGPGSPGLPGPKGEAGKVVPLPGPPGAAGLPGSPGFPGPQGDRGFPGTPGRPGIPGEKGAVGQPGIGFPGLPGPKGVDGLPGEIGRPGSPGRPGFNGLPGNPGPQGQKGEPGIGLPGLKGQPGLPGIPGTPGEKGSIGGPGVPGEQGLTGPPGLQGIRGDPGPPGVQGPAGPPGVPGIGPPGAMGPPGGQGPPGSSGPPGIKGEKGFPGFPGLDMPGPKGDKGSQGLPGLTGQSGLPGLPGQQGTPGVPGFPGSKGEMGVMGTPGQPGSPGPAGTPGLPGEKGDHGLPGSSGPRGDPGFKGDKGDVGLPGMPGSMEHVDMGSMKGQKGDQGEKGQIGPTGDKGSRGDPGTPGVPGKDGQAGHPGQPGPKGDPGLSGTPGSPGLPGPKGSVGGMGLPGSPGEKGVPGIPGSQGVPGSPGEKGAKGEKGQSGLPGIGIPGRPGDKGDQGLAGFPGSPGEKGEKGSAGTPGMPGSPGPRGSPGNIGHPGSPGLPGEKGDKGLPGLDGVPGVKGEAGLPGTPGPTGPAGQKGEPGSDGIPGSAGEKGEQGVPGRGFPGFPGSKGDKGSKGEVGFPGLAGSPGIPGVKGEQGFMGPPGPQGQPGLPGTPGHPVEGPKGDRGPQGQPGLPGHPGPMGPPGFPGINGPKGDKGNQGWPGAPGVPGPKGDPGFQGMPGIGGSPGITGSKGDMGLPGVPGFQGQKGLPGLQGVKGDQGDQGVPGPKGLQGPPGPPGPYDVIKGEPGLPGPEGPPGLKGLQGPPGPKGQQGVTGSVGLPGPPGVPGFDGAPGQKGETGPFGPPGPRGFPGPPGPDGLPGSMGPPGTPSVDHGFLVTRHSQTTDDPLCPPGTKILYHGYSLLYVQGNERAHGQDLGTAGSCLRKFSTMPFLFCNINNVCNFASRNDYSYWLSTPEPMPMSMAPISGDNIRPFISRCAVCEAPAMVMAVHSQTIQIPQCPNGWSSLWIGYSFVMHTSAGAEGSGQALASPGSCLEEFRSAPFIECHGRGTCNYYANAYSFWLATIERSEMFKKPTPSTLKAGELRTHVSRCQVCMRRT
T1 sequence (P08122 29-1707 limits assumed): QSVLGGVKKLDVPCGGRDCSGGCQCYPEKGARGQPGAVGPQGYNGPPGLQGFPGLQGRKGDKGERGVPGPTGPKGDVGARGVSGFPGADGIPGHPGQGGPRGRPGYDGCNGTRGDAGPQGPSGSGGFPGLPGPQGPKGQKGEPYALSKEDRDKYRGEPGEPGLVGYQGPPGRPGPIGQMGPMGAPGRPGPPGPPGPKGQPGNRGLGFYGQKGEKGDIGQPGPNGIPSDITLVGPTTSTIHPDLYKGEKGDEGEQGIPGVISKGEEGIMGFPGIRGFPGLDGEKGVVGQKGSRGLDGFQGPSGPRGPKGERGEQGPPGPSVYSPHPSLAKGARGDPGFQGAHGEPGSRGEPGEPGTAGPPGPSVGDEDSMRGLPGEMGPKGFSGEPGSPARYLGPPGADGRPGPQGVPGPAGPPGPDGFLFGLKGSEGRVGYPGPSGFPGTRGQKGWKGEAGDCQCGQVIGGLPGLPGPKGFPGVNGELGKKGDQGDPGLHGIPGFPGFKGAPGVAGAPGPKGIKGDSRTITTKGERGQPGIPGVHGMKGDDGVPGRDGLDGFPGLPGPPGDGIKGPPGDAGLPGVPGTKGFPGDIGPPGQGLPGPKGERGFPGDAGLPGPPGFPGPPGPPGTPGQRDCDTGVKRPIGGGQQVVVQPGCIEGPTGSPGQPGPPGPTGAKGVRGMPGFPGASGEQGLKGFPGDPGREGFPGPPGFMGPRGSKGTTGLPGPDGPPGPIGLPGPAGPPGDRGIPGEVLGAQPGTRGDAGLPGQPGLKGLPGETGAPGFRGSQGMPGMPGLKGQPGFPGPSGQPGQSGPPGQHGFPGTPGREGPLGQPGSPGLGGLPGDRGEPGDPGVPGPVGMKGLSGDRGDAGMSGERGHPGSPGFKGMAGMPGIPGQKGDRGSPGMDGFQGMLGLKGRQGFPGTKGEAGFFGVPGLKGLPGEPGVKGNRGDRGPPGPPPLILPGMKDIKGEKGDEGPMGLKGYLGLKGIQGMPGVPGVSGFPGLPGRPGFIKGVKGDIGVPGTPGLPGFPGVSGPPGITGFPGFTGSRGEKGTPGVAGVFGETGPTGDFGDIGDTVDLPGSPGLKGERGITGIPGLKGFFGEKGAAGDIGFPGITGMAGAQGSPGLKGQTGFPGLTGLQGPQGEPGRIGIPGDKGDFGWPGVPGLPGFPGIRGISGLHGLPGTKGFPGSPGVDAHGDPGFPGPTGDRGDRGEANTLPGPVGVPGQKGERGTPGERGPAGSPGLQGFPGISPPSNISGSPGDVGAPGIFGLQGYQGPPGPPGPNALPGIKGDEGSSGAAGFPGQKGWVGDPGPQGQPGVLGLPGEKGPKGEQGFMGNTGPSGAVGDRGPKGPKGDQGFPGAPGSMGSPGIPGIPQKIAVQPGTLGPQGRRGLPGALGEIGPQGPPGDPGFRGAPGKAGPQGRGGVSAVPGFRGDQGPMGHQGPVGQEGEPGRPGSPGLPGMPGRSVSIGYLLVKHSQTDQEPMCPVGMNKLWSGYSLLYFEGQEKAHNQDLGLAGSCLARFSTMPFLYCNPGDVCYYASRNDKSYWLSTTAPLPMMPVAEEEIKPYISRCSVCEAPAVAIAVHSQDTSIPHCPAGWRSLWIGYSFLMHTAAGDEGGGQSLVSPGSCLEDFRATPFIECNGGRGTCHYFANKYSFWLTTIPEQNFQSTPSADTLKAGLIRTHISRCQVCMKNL

## BSA: control coating protein [reference compound]
[1]; BSA substrate 5 µg/ml, all time intervals (30-90 min)
  Adhesion of added endothelial cells in spreading experiment: 1.7-2.2%

## DPLCPPGTKIL [peptide 1]
Type IV collagen [2]
  Competition of bound 125I-peptide by unlabeled corresponding peptide: could not be competed
Type IV collagen [2]; solid phase, 125I-peptide, pH 7.4
  Nature of binding to type IV collagen: this binding should not be specific
Type IV collagen [3]
  Additive effect on maximal turbidity: did not have any additive effect

## GDSRTITTKGERGQP [peptide ET-2]
[4]
  Competition for binding of 125I-Hep-I to endothelial cells: failed to compete

## GRGDSP [reference compound]
[5]; up to 500 µg/ml inhibitor, NC1 coated 20 µg/ml, 60 min at 37C
  Effect on endothelial cell adhesion to NC1 domain: did not have any effect

## MFKKPTPSTLKAGELR [peptide 4]
Type IV collagen [3]
  Additive effect on maximal turbidity: did not have any additive effect

## TAGSCLRKFSTM [peptide Hep-I]
[5]; 1 µg (20 µg/ml) peptide, NC1 coated 20 µg/ml, 100% = no inhibitor, 60 min at 37C
  Endothelial cell adhesion to NC1 domain: ≤ 20%
[5]; substrates coated with NC1 domain (Discussion)
  Inhibition of cell adhesion on NC1 domain substrates: ~ 80%
[6]
  Maximal inhibition of adhesion to type IV collagen: ~ 50%
[7]
  Adhesion of microvascular endothelial cells: also adhered
Type IV collagen [2]
  Competition of bound 125I-peptide by unlabeled corresponding peptide: efficient competition
[1]; [14]
  Spread cells, of attached endothelial cells: ~ 60%
[1]; 60 min, peptide Hep-I substrate 20 µg/ml
  Spread cells, of attached endothelial cells: 83%
[1]; 90 min, peptide Hep-I substrate 20 µg/ml
  Spread cells, of attached endothelial cells: 84%
Type IV collagen [8]
  Inhibition of the binding of heparin to type IV collagen: dose-dependent manner
[4]
  Competition for binding of 125I-Hep-I to endothelial cells: efficiently competed
BSA
  Nonspecific binding of the peptide to BSA, of total binding to type IV collagen: < 2%
Murine melanoma cells
  Adhesion of murine melanoma cells: also adhered
[9]
  Binding to heparin: specifically bound heparin

## heparin
[10]
  Effect on endothelial cell binding to type IV collagen: unaffected

## intact type IV collagen (EHS tumor) (complex)
[11]
  percent of the total type IV collagen in the lattice: 74%

## type IV collagen: type IV collagen isolated from the EHS tumor, a murine tumor
[12]; coated at 0.05 µg/well, ~5,000/well
  Adhesion of added endothelial cells: ~ 20%
[12]; coated at 5 µg/well
  Adhesion of added endothelial cells: ~ 40%
[13]
  Preferential adhesion of aortic endothelial cells: preferably adhered
[1]; [14]
  Spread cells, of attached endothelial cells: ~ 92.8%
[9]
  Binding to heparin: specifically bound heparin
